From ChEMBL document CHEMBL3774337, “In vivo phase II-enzymes inducers, as potential chemopreventive agents, based on the chalcone and furoxan skeletons” (Bioorg Med Chem, 2016)
Activity calls are given as the source filed them. The rule behind the calls is not given here.

Species on record: Mus musculus
Test: Ratio of quinone reductase specific activity in mouse Hepa1c1c7 cells to quinone reductase specific activity in mouse mutant BpRc1 cells
Type: cell-based
Conditions: not given

SMILES	Ratio
O=C(/C=C/c1ccc2c(c1)no[n+]2[O-])c1ccccc1	0.59
Cc1c(/C=C/C(=O)c2ccccc2O)no[n+]1[O-]	1.26
O=C(/C=C/c1c(-c2ccccc2)no[n+]1[O-])c1ccc2ccccc2c1	2.35

Test system: Salmonella typhimurium
Test: Mutagenicity in Salmonella typhimurium TA98 assessed as revertant colonies at 2 to 167 ug/plate by Ames test in absence of mouse liver S9 fraction
Type: toxicity, organism-based
Conditions: salmonella enterica subsp. enterica serovar typhimurium

SMILES	Activity
O=C(/C=C/c1ccc2c(c1)no[n+]2[O-])c1ccccc1	Toxic

Test system: Salmonella typhimurium
Test: Mutagenicity in Salmonella typhimurium TA98 assessed as revertant colonies at 2 to 167 ug/plate by Ames test in presence of mouse liver S9 fraction
Type: toxicity, organism-based
Conditions: salmonella enterica subsp. enterica serovar typhimurium

SMILES	Activity
O=C(/C=C/c1ccc2c(c1)no[n+]2[O-])c1ccccc1	Non-toxic

Species on record: Mus musculus
Test: Induction of quinone reductase specific activity in mouse mutant BpRc1 cells expressing defective translocator receptor Arnt using 2,6-DCIP as substrate at 10 uM measured for 1 min relative to control
Type: cell-based
Conditions: not given

SMILES	fold change (FC)
O=C(/C=C/c1ccc2c(c1)no[n+]2[O-])c1ccccc1	1.7
Cc1c(/C=C/C(=O)c2ccccc2O)no[n+]1[O-]	1.18
O=C(/C=C/c1c(-c2ccccc2)no[n+]1[O-])c1ccc2ccccc2c1	1.06

Test system: HT-29
Test: Cytotoxicity against human HT-29 cells at 100 uM after 24 hrs by SRB assay
Type: functional, cell-based
Conditions: not given

SMILES	Activity
O=C(/C=C/c1ccc2c(c1)no[n+]2[O-])c1ccccc1	Active
Cc1c(/C=C/C(=O)c2ccccc2O)no[n+]1[O-]	Active

Test system: MCF7
Test: Cytotoxicity against human MCF7 cells at 100 uM after 24 hrs by SRB assay
Type: functional, cell-based
Conditions: not given

SMILES	Activity
O=C(/C=C/c1ccc2c(c1)no[n+]2[O-])c1ccccc1	Active
Cc1c(/C=C/C(=O)c2ccccc2O)no[n+]1[O-]	Active

Test system: Salmonella typhimurium
Test: Mutagenicity in Salmonella typhimurium TA98 assessed as revertant colonies at 6 to 500 ug/plate by Ames test in presence of mouse liver S9 fraction
Type: toxicity, organism-based
Conditions: salmonella enterica subsp. enterica serovar typhimurium

SMILES	Activity
Cc1c(/C=C/C(=O)c2ccccc2O)no[n+]1[O-]	Non-toxic

Test system: Salmonella typhimurium
Test: Mutagenicity in Salmonella typhimurium TA98 assessed as revertant colonies at 6 to 500 ug/plate by Ames test in absence of mouse liver S9 fraction
Type: toxicity, organism-based
Conditions: salmonella enterica subsp. enterica serovar typhimurium

SMILES	Activity
Cc1c(/C=C/C(=O)c2ccccc2O)no[n+]1[O-]	Non-toxic

Species on record: Mus musculus
Test: Induction of quinone reductase specific activity in mouse Hepa1c1c7 cells using 2,6-DCIP as substrate at 10 uM measured for 1 min relative to control
Type: cell-based
Conditions: not given

SMILES	fold change (FC)
O=C(/C=C/c1ccc2c(c1)no[n+]2[O-])c1ccccc1	1.01
Cc1c(/C=C/C(=O)c2ccccc2O)no[n+]1[O-]	1.49
O=C(/C=C/c1c(-c2ccccc2)no[n+]1[O-])c1ccc2ccccc2c1	2.49

Test system: Salmonella typhimurium
Test: Mutagenicity in Salmonella typhimurium TA98 assessed as revertant colonies at 0.5 to 30 ug/plate by Ames test in presence of mouse liver S9 fraction
Type: toxicity, organism-based
Conditions: salmonella enterica subsp. enterica serovar typhimurium

SMILES	Activity
O=C(/C=C/c1c(-c2ccccc2)no[n+]1[O-])c1ccc2ccccc2c1	Non-toxic

Test system: Salmonella typhimurium
Test: Mutagenicity in Salmonella typhimurium TA98 assessed as revertant colonies at 0.5 to 30 ug/plate by Ames test in absence of mouse liver S9 fraction
Type: toxicity, organism-based
Conditions: salmonella enterica subsp. enterica serovar typhimurium

SMILES	Activity
O=C(/C=C/c1c(-c2ccccc2)no[n+]1[O-])c1ccc2ccccc2c1	Non-toxic
